In US10124004B2, “Pyrido[3,4-d]pyrimidine derivative and pharmaceutically acceptable salt thereof” (Teijin Pharma Limited, priority 2015, dated 2018) one finds IC50 data, which are given here for 26 molecules.

T1 sequence (P11802 whole entry): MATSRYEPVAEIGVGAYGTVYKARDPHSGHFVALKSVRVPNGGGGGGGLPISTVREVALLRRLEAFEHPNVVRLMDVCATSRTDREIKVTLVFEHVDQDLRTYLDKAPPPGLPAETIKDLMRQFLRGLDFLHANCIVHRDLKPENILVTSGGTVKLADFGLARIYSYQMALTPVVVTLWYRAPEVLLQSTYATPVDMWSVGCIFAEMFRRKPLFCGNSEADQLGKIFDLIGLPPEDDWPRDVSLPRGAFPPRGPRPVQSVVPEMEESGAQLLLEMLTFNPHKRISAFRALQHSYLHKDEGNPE
T1 sequence (P30281 whole entry partner): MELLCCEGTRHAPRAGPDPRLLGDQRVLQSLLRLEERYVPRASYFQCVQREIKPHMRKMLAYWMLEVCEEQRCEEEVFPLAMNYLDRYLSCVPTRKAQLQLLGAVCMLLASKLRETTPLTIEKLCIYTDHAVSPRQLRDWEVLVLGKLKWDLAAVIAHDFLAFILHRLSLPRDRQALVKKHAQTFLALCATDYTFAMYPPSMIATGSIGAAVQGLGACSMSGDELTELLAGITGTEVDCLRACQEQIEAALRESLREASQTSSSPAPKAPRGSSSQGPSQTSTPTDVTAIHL

The first assay addresses T1, CDK4/cyclin D3 (Homo sapiens, UniProt P11802).
T1 construct: purchased Carna Biosciences, Inc. QS S Assist CDK4/Cyclin D3_FP Kit
As to the kind of experiment: Human CDK4/cyclin D3 inhibitory activity (QS S Assist CDK4/Cyclin D3_FP Kit, IMAP fluorescence polarization). The class given is biochemical. Particulars: 50% inhibitory concentration against CDK4/cyclin D3, given as class symbol. The method, then:
Human CDK4/Cyclin D3 Inhibitory Activity
Each compound was analyzed for CDK4/cyclin D3 inhibitory activity with an assay kit (QS S Assist CDK4/Cyclin D3_FP Kit, available from Carna Biosciences, Inc.). This assay kit determines kinase activity on the basis of the IMAP technology by Molecular Devices. Specifically, the kinase activity is determined through quantification of a variation in fluorescent polarization caused by binding of a kinase-phosphorylated fluorescent substance to an IMAP-binding reagent.
Each solution was prepared with the 10× assay buffer attached to the kit or a separately prepared assay buffer having the same composition as the assay buffer attached to the kit. An assay buffer was prepared by 10-fold dilution of the 10× assay buffer with distilled water. The assay buffer contains 20 mM HEPES (pH 7.4), 0.01% Tween20, and 2 mM dithiothreitol. A test compound solution was prepared by dilution of the test compound with dimethyl sulfoxide (DMSO) to a concentration 100 times higher than the final concentration and then 25-fold dilution with the assay buffer to a concentration four times higher than the final concentration. An ATP/substrate/Metal solution was prepared by five-fold dilution of the 5×ATP/substrate/Metal solution attached to the kit with the assay buffer. An enzyme solution was prepared by dilution of the CDK4/cyclin D3 attached to the kit with the assay buffer to a concentration twice higher than the final concentration (final concentration of CDK4/cyclin D3:12.5 to 25 ng/well). A detection reagent was prepared by five-fold dilution of each of 5× IMAP-binding buffer A and 5×IMAP-binding buffer B with distilled water, mixing of IMAP-binding buffer A with IMAP-binding buffer B at a ratio of 85:15, and 400-fold dilution of the IMAP-binding reagent with the mixed buffer.
The test compound solution (5 μL/well) and the ATP/substrate/Metal solution (5 μL/well) were added to a 384-well plate, and the enzyme solution or the assay buffer (10 μL/well) was added to the plate (total amount of the reaction mixture: 20 μL/well) for initiation of enzymatic reaction. […] The reaction was performed at room temperature for 45 minutes, and the detection reagent (60 μL/well) was then added to the plate, followed by further reaction for 30 minutes at room temperature under light shielding conditions. Subsequently, fluorescent polarization was determined with a microplate reader at an excitation wavelength of 485 nm and an emission wavelength of 535 nm.
The percent inhibition of enzyme activity was calculated for each test compound (note: enzyme activity=100% in the case of addition of the enzyme solution and addition of DMSO instead of the test compound solution, whereas enzyme activity=0% in the case of addition of the assay buffer instead of the enzyme solution, and addition of DMSO instead of the test compound solution). The percent inhibition of enzyme activity was fitted to a dose-response curve, to determine a 50% inhibitory concentration against CDK4/cyclin D3.
In each table, “+++” corresponds to IC50<10 nM, “++” 10 nM≤IC50<100 nM, and “+” 100 nM≤IC50.
For `CC(O)c1cc2cnc(Nc3ccc(OCCN(C)C)cn3)nc2c(NC2CCC(C)(C)OC2)n1` (single isomer, unassigned) [Compound 689], the IC50 is < 10 nM.

On to `CC(O)c1cc2cnc(Nc3ccc(OCCN(C)C)cn3)nc2c(NC2CCC(C)(C)OC2)n1` (single isomer, unassigned) [Compound 690], for which the IC50 is < 10 nM.

As for `CC(C)Nc1nc(C(C)O)cc2cnc(Nc3ccc(N4CCC(O)C(C)C4)nn3)nc12` (single isomer, unassigned) [Compound 704], the IC50 is < 10 nM.

As to `CC(C)Nc1nc(C(C)O)cc2cnc(Nc3ccc(N4CCC(O)C(C)C4)nn3)nc12` (single isomer, unassigned) [Compound 705], the IC50 is < 10 nM.

The assay is the same for the next values; noted with them: Human CDK4/cyclin D3 inhibitory activity; read-out: CDK4 Activity symbol.
With `COC(C)c1cc2cnc(Nc3ccc(O[C@@H]4CCNC[C@H]4F)cn3)nc2c(NC(C)C)n1` (relative stereo) [Compound 459], the IC50 was < 10 nM.

Turning to `COC(C)c1cc2cnc(Nc3ccc(O[C@H]4CCNC[C@H]4F)cn3)nc2c(NC(C)C)n1` (relative stereo) [Compound 460], the IC50 is < 10 nM.

Take `CC(C)Nc1nc(C(C)O)cc2cnc(Nc3ccc(N4CCCC(O)C4)nn3)nc12` (single isomer, unassigned) [Compound 582]: the IC50 was < 10 nM.

Regarding `CC(C)Nc1nc(C(F)F)cc2cnc(Nc3ccc(C4CCOCC4)cn3)nc12` [Compound 160], the IC50 was < 10 nM.

Consider `CO[C@H](C)c1cc2cnc(Nc3ccc(N4CCNCC4=O)nn3)nc2c(NC(C)C)n1` [Compound 356], for which the IC50 fell in the range of 10 to 100 nM.

For `CO[C@H](C)c1cc2cnc(Nc3ccc(NC4CCNC4)nn3)nc2c(NC(C)C)n1` (some centres unmarked) [Compound 357], the IC50 was < 10 nM.

For `CO[C@H](C)c1cc2cnc(Nc3ccc(N4CCNCC4)nn3)nc2c(NC2CCS(=O)(=O)CC2)n1` [Compound 359], the IC50 lay in the range of 10 to 100 nM.

For `CO[C@H](C)c1cc2cnc(Nc3ccc(CN4CCNCC4)cn3)nc2c(NC2CCS(=O)(=O)CC2)n1` [Compound 361], the IC50 was < 10 nM.

In the case of `CO[C@H](C)c1cc2cnc(Nc3ccc(N4CCNC(=O)C4)nn3)nc2c(NC(C)C)n1` [Compound 362], the IC50 fell in the range of 10 to 100 nM.

As to `CO[C@H](C)c1cc2cnc(Nc3ncc(N4CCNCC4)cn3)nc2c(NC(C)C)n1` [Compound 374], the IC50 is 10 to 100 nM.

As for `COCC(C)(C)Nc1nc([C@@H](C)O)cc2cnc(Nc3ncc(N4CCNCC4)cn3)nc12` [Compound 375], the IC50 was ≥ 100 nM.

Regarding `CO[C@H](C)c1cc2cnc(Nc3ccc(N(C)C(=O)C4CCNCC4)cn3)nc2c(NC(C)C)n1` [Compound 377], the IC50 is 10 to 100 nM.

For the molecule `COC(=O)[C@H]1CC[C@H](CNc2nc(C(C)OC)cc3cnc(Nc4ccc(CN5CCNCC5)cn4)nc23)CC1` (some centres unmarked) [Compound 390], the IC50 was < 10 nM.

Consider `COC(C)c1cc2cnc(Nc3ccc(CN4CCNCC4)cn3)nc2c(N(C)C(C)C)n1` (centres unmarked) [Compound 391], for which the IC50 was in the range of 10 to 100 nM.

Regarding `COC(C)c1cc2cnc(Nc3ccc(CN4CCNCC4)cn3)nc2c(NCC(C)C)n1` (centres unmarked) [Compound 392], the IC50 is < 10 nM.

Consider `COC(C)c1cc2cnc(Nc3ccc(CN4CCNCC4)cn3)nc2c(NCCN2CCNC2=O)n1` (centres unmarked) [Compound 393], for which the IC50 fell in the range of 10 to 100 nM.

In the case of `COC(C)c1cc2cnc(Nc3ccc(CN4CCNCC4)cn3)nc2c(NCC(C)(C)OC)n1` (centres unmarked) [Compound 394], the IC50 lay within 10 to 100 nM.

Consider `COC(C)c1cc2cnc(Nc3ccc(CN4CCNCC4)cn3)nc2c(NCC2COC2)n1` (centres unmarked) [Compound 396], for which the IC50 was ≥ 100 nM.

Consider `COC(C)c1cc2cnc(Nc3ccc(CN4CCNCC4)cn3)nc2c(NC2CCCC(O)C2)n1` (centres unmarked) [Compound 397], for which the IC50 is < 10 nM.

In the case of `COC(C)c1cc2cnc(Nc3ccc(CN4CCNCC4)cn3)nc2c(NCC2CCCCO2)n1` (centres unmarked) [Compound 398], the IC50 was < 10 nM.

Regarding `COC(C)c1cc2cnc(Nc3ccc(CN4CCNCC4)cn3)nc2c(NC2CCNCC2)n1` (centres unmarked) [Compound 399], the IC50 was 10 to 100 nM.

With `COC(C)c1cc2cnc(Nc3ccc(CN4CCNCC4)cn3)nc2c(Nc2ccc(C#N)cc2)n1` (centres unmarked) [Compound 401], the IC50 lay within 10 to 100 nM.
